Laboratory results reported in patent publication US20090105172A1, “Stabilized Aptamers to PSMA and Their Use as Prostate Cancer Therapeutics” (priority 2005, published 2009).
Strand notation (5' to 3'): a small letter for the sugar, then the base; units joined by * are phosphorothioate-linked, units joined directly phosphodiester-linked; [ ] holds rarer units or linkages, { } end groups; capitals alone tell only the bases. [invdT] = inverted (3'-3') thymidine; d = 2'-deoxy (DNA); m = 2'-O-methyl; f = 2'-fluoro

How the values were obtained:
[1] = docetaxel in combination with prednisone (cited clinical trial, not the aptamer), every three weeks; cited from earlier work
PSMA NAALADase activity = PSMA NAALADase activity (Homo sapiens, UniProt Q04609); assay: NAALADase inhibition assay; type: biochemical; settings: relative to parent
Chain of PSMA NAALADase activity (Q04609 with tags, fused parts or gaps limits assumed): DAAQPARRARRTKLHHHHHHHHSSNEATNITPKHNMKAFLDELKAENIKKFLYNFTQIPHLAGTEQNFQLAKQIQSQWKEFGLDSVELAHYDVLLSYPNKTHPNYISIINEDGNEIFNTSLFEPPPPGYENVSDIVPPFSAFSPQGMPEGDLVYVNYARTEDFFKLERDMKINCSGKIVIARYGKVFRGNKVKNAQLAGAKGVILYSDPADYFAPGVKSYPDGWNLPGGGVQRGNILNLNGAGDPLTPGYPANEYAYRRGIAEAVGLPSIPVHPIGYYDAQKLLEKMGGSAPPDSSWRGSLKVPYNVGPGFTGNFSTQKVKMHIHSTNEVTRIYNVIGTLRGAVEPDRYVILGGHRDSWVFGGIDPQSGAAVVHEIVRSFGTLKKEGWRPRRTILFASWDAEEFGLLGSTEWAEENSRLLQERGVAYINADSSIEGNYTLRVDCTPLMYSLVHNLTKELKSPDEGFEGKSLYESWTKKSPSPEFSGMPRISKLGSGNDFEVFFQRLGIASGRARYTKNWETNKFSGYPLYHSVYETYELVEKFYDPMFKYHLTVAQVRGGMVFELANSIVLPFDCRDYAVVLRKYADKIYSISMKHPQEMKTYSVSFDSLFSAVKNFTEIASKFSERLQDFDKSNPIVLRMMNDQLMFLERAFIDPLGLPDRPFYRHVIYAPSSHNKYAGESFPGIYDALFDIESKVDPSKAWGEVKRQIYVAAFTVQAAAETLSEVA
Method: These point mutant constructs were assessed for activity in terms of inhibition of PSMA NAALADase activity. The NAALADase assay was performed in 96 well format. PSMA aptamers were serially diluted in 1× reaction buffer (40 mM Tris-HCl, pH 7.4, 0.1 mM ZnSO4, 0.1 mg/in L BSA) in a standard 96 well plate to be tested at a final concentration range from 30 pM to 1 μM. The enzyme was prepared by diluting 30 μL of 100 nM PSMA into 8 mL of reaction buffer, and kept cool on ice. The substrate was prepared by adding 19 μl of NAAG [Glutamate-3,4-^3H], 50.8 Ci/mmol, 19.7 μM (Perkin-Elmer, Wellesley, Mass., NET1082) into 2.2 mL of reaction buffer.
Following preparation of all reagents, 4 μl of each serially diluted aptamer was added to a separate 96 well plate (the reaction plate). 76 μl of diluted enzyme was added to the corresponding wells containing aptamer. 80 μl of reaction buffer was added to one column of wells to serve as a background control. The diluted substrate and reaction plate were then moved to a room at 37° C. and allowed to equilibrate for 10 minutes. After temperature equilibration, 20 μl of the prepared substrate was added to each well using a 12 channel pipet for a final volume of 100 μl/well, and a final concentration of […] enzyme and 30 nM substrate per well. A column of wells containing enzyme and substrate only was used as a high control. The aptamer/enzyme/substrate reaction was incubated at 37° C. for 15 minutes, and stopped by the addition of 100 μl of quench buffer (100 mM sodium phosphate, pH 7.4, 2 mM EDTA).
To separate the cleavage products, […] and Glutamate, from the substrate, an AG 1-X8, 200-400 mesh, formate resin (BioRad, Hercules, Calif., # 140-1454) was used. The resin was prepared by forming a 1:1 slurry in H2O, and adding 140 μl per 96 well using a Multiscreen filter plate (Multiscreen, 1.2 μm filter plates (Millipore, Billerica, Mass., # MABVN1250)). […] The plate was sealed and read using a Packard Topcount Microplate Scintillation Counter. […]

[2] = Plasma stability time course assay; type: in vitro ADME; settings: 95% human plasma, 37° C.
Method: Plasma stability of each construct was measured using a plasma stability time course assay over 0, 1, 3, 10, 30, and 100 hours. A reaction was set up for each aptamer tested in an eppendorf tube using 95% human plasma (20 μl per time point), an appropriate concentration of aptamer (determined by the highest predicted dosing level (CMax)), and a sufficient amount of spiked 5′-end labeled aptamer such that a 1:10 dilution of the reaction will be over 1000 cpm, brought to total volume with 1×PBS. When assembling the reaction, the plasma was added last, and the reactions were immediately added to a 37° C. heat block. A reaction for each aptamer tested containing 1×PBS instead of plasma was used as a 0 hour time point. At each designated time point, 20 μl was withdrawn from each reaction and added to an appropriately labeled eppendorf tube containing 200 μl of formamide loading dye, and was immediately snap frozen in liquid nitrogen and stored at −20° C. After all the samples were collected 20 μl of each plasma sample/loading dye was aliquoted into separate tubes, and 2 μl of 1% SDS was added to each tube (final SDS concentration 0.1%). The samples containing 0.1% SDS were heated at 90° C. for 10-15 minutes. […]
The percentage of the parent aptamer remaining for each time-point was determined by quantifying the parent aptamer band and dividing by the total counts in the lane. […]

LNCaP cells (PSMA+) = assay: LNCaP FACS binding assay with fluorescein-labeled aptamers; type: cell-based; settings: FACS histogram
Method: To prepare aptamers for the FACS assay, PSMA aptamers were serially diluted (0-1 uM) in FACS buffer (1×DPBS w/Ca^++/Mg^++ (Gibco, Carlsbad, Calif.) supplemented with 10 mg/mL salmon sperm DNA & 0.2% Na Azide), in a V-bottom 96 well plate, at the concentrations to be tested. LNCaP and PC-3 cells (ATCC, Manassas, Va.) were harvested with trypsin, and 200,000 cells/well were counted, washed once with 1×DPBS (with Ca^++ and Mg^+) and resuspended in 200 μl of FACS Buffer. The 200 μl of cells in FACS buffer were added to individual wells of a new 96 well plate, pelleted by centrifugation (1300 rpm for 5 minutes), and resuspended in 100 μl of the appropriate concentration of diluted aptamer. FACS buffer, a-PSMA antibody (3C6) (Northwest Biotherapeutics, Bothell, Wash., Cat #: 60-5002) and an irrelevant fluorescein isothiocyanate (“FITC”) mouse IgG1 isotype control antibody (BD Pharmingen, San Diego, Calif., Cat#: 554679) were used as controls. The wells of aptamer/cell mixture were incubated at room temperature for 20-30 minutes.
After incubation, 180 μl of FACS buffer (plus 10 mg/mL ssDNA, and 0.2% Na Azide) was added to each well to quench the reaction and cells were pelleted by centrifugation.
Anti-fluorescein/Oregon Green®, rabbit IgG fraction, Alexa Fluor® 488 conjugate (Molecular Probes, Eugene, Oreg., Cat#: A11090) was diluted 1:100 in FACS buffer (100 μl/well) as the secondary antibody for the aptamer-FITC conjugates and FITC-mouse IgG isotype control. FITC Rat anti-mouse IgG1 (A85-1) (BD Pharmingen, San Diego, Calif., Cat#: 553443) was diluted in 1:100 in FACS Buffer as the secondary for the α-PSMA antibody. After centrifugation, the cell pellets were resuspended in 100 μl of the appropriate diluted secondary antibody, and incubated 10 minutes at room temperature. After incubation, 180 μl of FACS buffer was added to each well to quench the reaction, and cells were pelleted by centrifugation.
A tertiary antibody which recognizes the Alexa Fluor® 488 goat anti-rabbit IgG was prepared to further amplify the Alexa Fluor signal. Alexa Fluor® 488 goat anti-rabbit IgG (H+ L) (Molecular Probes, Eugene, Oreg., Cat#: A11034) was diluted 1:100 in FACS buffer, and the pelleted cells were resupsended in 100 μl of the tertiary antibody and incubated for 10 minutes at room temperature. […]
(§1) Cell samples were analyzed on a FACS Scan machine (Becton Dickinson, San Jose, Calif.) under the following parameters: FSC/SSC, FL-1/FSC, FL-3/FSC. The unstained and/or isotype controls were used to establish gating parameters, and the data was analyzed using Cell Quest Pro software version 5.1.1 (Becton Dickinson Immunocytometry Systems, San Jose, Calif.).

PC-3 cells (PSMA−) = assay: FACS binding assay, control cell line; type: cell-based; settings: FACS histogram
Method: To prepare aptamers for the FACS assay, PSMA aptamers were serially diluted (0-1 uM) in FACS buffer (1×DPBS w/Ca^++/Mg^++ (Gibco, Carlsbad, Calif.) supplemented with 10 mg/mL salmon sperm DNA & 0.2% Na Azide), in a V-bottom 96 well plate, at the concentrations to be tested. LNCaP and PC-3 cells (ATCC, Manassas, Va.) were harvested with trypsin, and 200,000 cells/well were counted, washed once with 1×DPBS (with Ca^++ and Mg^+) and resuspended in 200 μl of FACS Buffer. The 200 μl of cells in FACS buffer were added to individual wells of a new 96 well plate, pelleted by centrifugation (1300 rpm for 5 minutes), and resuspended in 100 μl of the appropriate concentration of diluted aptamer. FACS buffer, a-PSMA antibody (3C6) (Northwest Biotherapeutics, Bothell, Wash., Cat #: 60-5002) and an irrelevant fluorescein isothiocyanate (“FITC”) mouse IgG1 isotype control antibody (BD Pharmingen, San Diego, Calif., Cat#: 554679) were used as controls. The wells of aptamer/cell mixture were incubated at room temperature for 20-30 minutes. […]
as §1

**Q.** For `CC(=O)O[C@@]12CO[C@@H]1C[C@H](O)[C@@]1(C)C(=O)[C@H](O)C3=C(C)[C@@H](OC(=O)[C@H](O)[C@@H](NC(=O)OC(C)(C)C)c4ccccc4)C[C@@](O)([C@@H](OC(=O)c4ccccc4)[C@H]21)C3(C)C` [Taxotere, docetaxel], which “survival advantage over control group (mitoxantrone and prednisone)” value [1] is on record?
**A.** approximately 2.5 months

**Q.** Which results are given for “mCmGmGmAfCfCmGdAdAfCmAmAmGmGmCfCfU-s-dGmAfCfUfUfCfUmAfUmAfCfUdAmAmGmCmCmUmAfCmGfUmUmCmCmG-3T (mCmGmGmAfCfCmGdAdAfCmAmAmGmGmCfCfU*dGmAfCfUfUfCfUmAfUmAfCfUdAmAmGmCmCmUmAfCmGfUmUmCmCmG[invdT]) [ARC1725, ribo-free version based on ARC591]”?
**A.** activity in the NAALADase inhibition assay (PSMA NAALADase activity): retained full activity; half life (T1/2) in plasma [2]: 11 h

B1: GGGAGGACGAUGCGGACCGAAAAAGACCUGAfCfIUfCfUAfUAfCfUAAGfUfCfUAf CGfTUIJfCfCfCAGAfCGAfCfUfCGfCfCfCGA (nucleic acid)
chain: GGGAGGACGAUGCGGACCGAAAAAGACCUGACUUCUAUACUAAGUCUACGUUCCCAGACGACUCGCCCGA
modifications: 2'-fluoro at CU, RNA at AG, backbone not given here
notes: existing PSMA specific aptamer of rRfY composition from U.S. Ser. No. 09/978,969
**Q.** What does the source list for B1?
**A.** binding to LNCaP (PSMA+) cells (LNCaP cells (PSMA+)): binding to LNCaP (PSMA+) cells; binding to PC-3 (PSMA−) cells (PC-3 cells (PSMA−)): not to PC-3 (PSMA−) cells
